Reference: PMC4366281 (Nature chemical biology, 2015)

Target: T1, MtbVKOR (Mycobacterium tuberculosis, UniProt I6X5W1)
T1 sequence (I6X5W1 1-210): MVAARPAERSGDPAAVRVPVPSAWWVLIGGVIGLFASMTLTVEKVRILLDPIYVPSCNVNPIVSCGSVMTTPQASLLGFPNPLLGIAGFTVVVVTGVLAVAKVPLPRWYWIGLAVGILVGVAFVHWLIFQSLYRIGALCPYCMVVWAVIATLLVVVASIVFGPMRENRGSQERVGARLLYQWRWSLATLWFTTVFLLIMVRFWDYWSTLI
Assay: HTS agar 384-well X-Gal assay, MtbVKOR-complemented E. coli dsbB null strain
Assay type: cell-based
Details: agar assay / re-test

SMILES: O=C1c2ccccc2C(=O)C1c1ccc(Br)cc1 [brominedione]
- inhibition of MtbVKOR-dependent E. coli strain: specific hit
